Laboratory results published in paper doi:10.1101/2025.04.16.649181, “Design of peptide-based PAC1 antagonists combining molecular dynamics simulations and a biologically relevant cell-based assay” (bioRxiv, 2025).
Positions of bridges follow the written chain, without caps; N, C: chain ends. Non-standard residues stand in square brackets, D forms with d. Residues, ends and D or L forms follow the SMILES beside them. No end group written: not given here. Cha = N[C@@H](CC1CCCCC1)C(=O)O

Assays:
[1] = molecular target: T1, PAC1 (endogenous, mainly PAC1null, SH-SY5Y) (Homo sapiens, UniProt P41586); assay: CBS assay, antagonism of P38-induced cAMP in SY5Y_CBS cells; format: cell-based; details: for P38-induced cAMP elevation blocked to: 0.2 nM P38, SY5Y_CBS, n = 3; for IC50: three independent experiments
T1 construct: Neuroblastoma SH-SY5Y cells endogenously xpressing hPAC1 and engineered to express CBS; endogenous in cells
T1 sequence (P41586 21-468): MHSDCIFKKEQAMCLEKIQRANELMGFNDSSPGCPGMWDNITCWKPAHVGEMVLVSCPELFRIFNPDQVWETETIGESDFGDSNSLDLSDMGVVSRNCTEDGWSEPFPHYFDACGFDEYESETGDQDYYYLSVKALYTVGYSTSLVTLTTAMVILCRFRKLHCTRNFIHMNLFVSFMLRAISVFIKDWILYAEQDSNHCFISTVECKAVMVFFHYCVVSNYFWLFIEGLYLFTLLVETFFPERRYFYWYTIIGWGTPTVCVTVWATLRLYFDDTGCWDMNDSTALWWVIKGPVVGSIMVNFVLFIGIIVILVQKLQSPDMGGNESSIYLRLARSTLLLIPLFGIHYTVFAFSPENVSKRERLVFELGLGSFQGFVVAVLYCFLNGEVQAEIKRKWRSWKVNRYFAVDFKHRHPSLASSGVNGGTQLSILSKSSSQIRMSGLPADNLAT
Text: (§1) A single clone of the SH-SY5Y cell line stably expressing a cAMP biosensor (SY5Y_CBS) was generated as previously described for HEK293_CBS and NS-1_CBS cells, using the retroviral vector pLHCX containing the cAMP biosensor and a hygromycin resistance gene. A HEK293_CBS_hPAC1 cell clone was generated by transducing HEK293_CBS cells with the lentiviral vector pLX304 (GeneCopoeia, Rockville, MD) encoding the human PAC1hop (PAC1; GenBank accession no. BC143679) and a blasticidin resistance gene . Following transduction, cells were selected with the appropriate antibiotics (hygromycin or blasticidin) for 2 weeks. Single-cell clones were subsequently isolated by limiting dilution and assessed for PACAP-induced cAMP production using concentration-response assays.
(§2) The cyclic AMP biosensor (CBS) assay was performed using Gibco CO2-independent medium (ThermoFisher, catalog #18045-088). HEK293_CBS_hPAC1 or SY5Y_CBS cells were seeded in 96-well black/clear-bottom plates (MidSci, Fenton, MO) at a density of 6,000 cells per well and incubated overnight. The following day, the medium in each well was aspirated and replaced with fresh medium containing 1.5 mg/mL D-luciferin potassium salt substrate (Gold Biotechnology, St. Louis, MO) and 500 μM isobutyl-1-methylxanthine (IBMX), followed by incubation at 37 °C for 1 hour. Cells were then pre-treated with antagonists for 10 minutes before the addition of agonists (PACAP or forskolin). Plates were incubated at 37 °C for 1 hour, then brought to room temperature and equilibrated for 30 minutes. Luminescence was measured using a GloMax plate reader (Promega, Madison, WI).
(§3) GraphPad Prism ver. 9.0 or 10.0 (GraphPad Software Inc, Boston, MA) was used for data analysis. Concentration response curves were created using a four parameter logistic regression model. EC80 and IC50 parameters were obtained using non-linear regression curve fitting tools. EC80 was calculated as the effective concentration of the agonist required to produce 80% of the maximal response. IC50 was calculated as the concentration of the antagonist that produced 50% of the response induced by an agonist (either PACAP or forskolin) in the absence of the antagonist. Seven or eight different concentrations and three technical replicates per concentration were used for curve fitting. All data are presented as mean ± standard error of the mean (SEM).

[2] = molecular target: T1, PAC1 (endogenous, mainly PAC1null, SH-SY5Y); assay: CBS assay, antagonism of P27-induced cAMP in SY5Y_CBS cells; format: cell-based; details: for antagonist potency vs P6-27: 0.2 nM P27 (EC80); for IC50: IC50 against P27, 0.2 nM P27 (EC80), n = 3, Figure 7C
Text: as §1, §2
For the high-throughput CBS screening assays, cells were plated at 2,000 (HEK293_CBS_hPAC1) or 3,000 (SY5Y_CBS) cells per well in […] of Gibco CO2-independent medium, in white 1,536-well tissue culture treated plates. After overnight incubation at 37 °C and 5% CO2, […] of luciferin/IBMX solution was added to the wells (final concentrations of 500 μM each) and plates were incubated at 37 °C for 1 hour. SMOLs (22.5 nL) were transferred to the assay plate, using a pintool device (HEK293 screen) or an ECHO acoustic liquid handler (Beckman Coulter, Brea, CA, SY5Y screen), to final concentrations (4 concentrations per compound) between 0.5 and 30 μM and cells were incubated at 37 °C for 1 hour (HEK293 screen) or 10 minutes (SY5Y screen). […] For forskolin counterscreening in SY5Y cells, forskolin instead of peptide was dispensed to the plate at a final concentration of 5 μM.
as §3

[3] = 0.2 nM P38 (EC80), SY5Y_CBS, mean ± SEM, Figure 11B, read-out: IC50 of P6-38 C-terminal mutants in CBS assay
[4] = IC50 against P38 (Figure 9C), 0.2 nM P38, CBS assay, mean ± SEM

FTDSYSRYRKQMAVKKYLAAVL-NH2 [P6-27]
P38-induced cAMP elevation blocked to ([1]; P6-27 at 1 μM): 50% | P38-induced cAMP elevation blocked to ([1]; until the highest concentration tested (10 μM)): ~ 50%

CSCC[C@@H]1NC(=O)[C@@H](NC(=O)[C@H](CCCCN)NC(=O)[C@H](CCCNC(=N)N)NC(=O)[C@H](Cc2ccc(O)cc2)NC(=O)[C@H](CCCNC(=N)N)NC(=O)[C@H](CO)NC(=O)[C@H](Cc2ccc(O)cc2)NC(=O)[C@H](CO)NC(=O)[C@H](CC(=O)O)NC(=O)[C@@H](NC(=O)[C@@H](N)Cc2ccccc2)[C@@H](C)O)CCC(=O)NCCCC[C@@H](C(=O)N[C@@H](CCCCN)C(=O)N[C@@H](Cc2ccc(O)cc2)C(=O)N[C@@H](CC(C)C)C(=O)N[C@@H](C)C(=O)N[C@@H](C)C(=O)N[C@H](C(=O)N[C@@H](CC(C)C)C(N)=O)C(C)C)NC(=O)[C@H](C(C)C)NC(=O)[C@H](C)NC1=O [P6-27Lb, (c[E16,K20])P6-27] (H-FTDSYSRYRKEMAVKKYLAAVL-NH2; lactam 11-15; N-terminus assumed)
antagonist potency vs P6-27 [2]: did not increase the inhibitory effect of P6-27 | IC50 [2]: > 1 µM

CSCC[C@@H]1NC(=O)[C@@H](NC(=O)[C@H](CCCCN)NC(=O)[C@H](CCCNC(=N)N)NC(=O)[C@H](Cc2ccc(O)cc2)NC(=O)[C@H](CCCNC(=N)N)NC(=O)[C@H](CO)NC(=O)[C@H](Cc2ccc(O)cc2)NC(=O)[C@H](CO)NC(=O)[C@H](CC(=O)O)NC(=O)[C@@H](NC(=O)[C@@H](N)Cc2ccccc2)[C@@H](C)O)CCC(=O)NCCCC[C@@H](C(=O)N[C@@H](CCCCN)C(=O)N[C@@H](Cc2ccc(O)cc2)C(=O)N[C@@H](CC(C)C)C(=O)N[C@@H](C)C(=O)N[C@@H](C)C(=O)N[C@H](C(=O)N[C@@H](CC2CCCCC2)C(N)=O)C(C)C)NC(=O)[C@H](C(C)C)NC(=O)[C@H](C)NC1=O [P6-27Lbx2, (c[E16,K20], Cha27)P6-27] (H-FTDSYSRYRKEMAVKKYLAAV[Cha]-NH2; lactam 11-15; N-terminus assumed)
antagonist potency vs P6-27 [2]: did not increase the inhibitory effect of P6-27 | IC50 [2]: > 1 µM

FTDSYSRYRKQMAVKKYLAAVLGKRYKQRVK-NH2 [P6-36]
IC50 [1, 3]: 0.09 ± 0.013 µM

FTDSYSRYRKQMAVKKYLAAVLG-NH2 [P6-28]
IC50 ([1]; 0.2 nM P38 (EC80), SY5Y_CBS, Figure 11B, read-out: IC50 of P6-38 C-terminal mutants in CBS assay): > 1 µM

CSCC[C@H](NC(=O)[C@H](CCC(N)=O)NC(=O)[C@H](CCCCN)NC(=O)[C@H](CCCNC(=N)N)NC(=O)[C@H](Cc1ccc(O)cc1)NC(=O)[C@H](CCCNC(=N)N)NC(=O)[C@H](CO)NC(=O)[C@H](Cc1ccc(O)cc1)NC(=O)[C@H](CO)NC(=O)[C@H](CC(=O)O)NC(=O)[C@@H](NC(=O)[C@@H](N)Cc1ccccc1)[C@@H](C)O)C(=O)N[C@@H](C)C(=O)N[C@H](C(=O)N[C@@H](CCCCN)C(=O)N[C@@H](CCCCN)C(=O)N[C@@H](Cc1ccc(O)cc1)C(=O)N[C@@H](CC(C)C)C(=O)N[C@@H](C)C(=O)N[C@H]1CCC(=O)NCCCC[C@@H](C(=O)N[C@@H](CCCNC(=N)N)C(=O)N[C@@H](Cc2ccc(O)cc2)C(=O)N[C@@H](CCCCN)C(=O)N[C@@H](CCC(N)=O)C(=O)N[C@@H](CCCNC(=N)N)C(=O)N[C@H](C(=O)N[C@@H](CCCCN)C(=O)N[C@@H](CC(N)=O)C(=O)N[C@@H](CCCCN)C(N)=O)C(C)C)NC(=O)CNC(=O)[C@H](CC(C)C)NC(=O)[C@H](C(C)C)NC1=O)C(C)C [P6-38Lb, (c[E25,K29])P6-38] (H-FTDSYSRYRKQMAVKKYLAEVLGKRYKQRVKNK-NH2; lactam 20-24)
IC50 [1, 4]: 0.219 ± 0.028 µM

CSCC[C@@H]1NC(=O)[C@@H](NC(=O)[C@H](CCCCN)NC(=O)[C@H](CCCNC(=N)N)NC(=O)[C@H](Cc2ccc(O)cc2)NC(=O)[C@H](CCCNC(=N)N)NC(=O)[C@H](CO)NC(=O)[C@H](Cc2ccc(O)cc2)NC(=O)[C@H](CO)NC(=O)[C@H](CC(=O)O)NC(=O)[C@@H](NC(=O)[C@@H](N)Cc2ccccc2)[C@@H](C)O)CCC(=O)NCCCC[C@@H](C(=O)N[C@@H](CCCCN)C(=O)N[C@@H](Cc2ccc(O)cc2)C(=O)N[C@@H](CC2CCCCC2)C(=O)N[C@@H](C)C(=O)N[C@@H](C)C(=O)N[C@H](C(=O)N[C@@H](CC(C)C)C(N)=O)C(C)C)NC(=O)[C@H](C(C)C)NC(=O)[C@H](C)NC1=O [P6-27Lbx1, (c[E16,K20], Cha23)P6-27] (H-FTDSYSRYRKEMAVKKY[Cha]AAVL-NH2; lactam 11-15; N-terminus assumed)
antagonist potency vs P6-27 [2]: did not increase the inhibitory effect of P6-27 | IC50 [2]: > 1 µM

FTDSYSRYRKQMAVKKYLAAVLGKRYK-NH2 [P6-32]
IC50 [1, 3]: 0.072 ± 0.017 µM

CSCC[C@H](NC(=O)[C@H](CCC(N)=O)NC(=O)[C@H](CCCCN)NC(=O)[C@H](CCCNC(=N)N)NC(=O)[C@H](Cc1ccc(O)cc1)NC(=O)[C@H](CCCNC(=N)N)NC(=O)[C@H](CO)NC(=O)[C@H](Cc1ccc(O)cc1)NC(=O)[C@H](CO)NC(=O)[C@H](CC(=O)O)NC(=O)[C@@H](NC(=O)[C@@H](N)Cc1ccccc1)[C@@H](C)O)C(=O)N[C@@H](C)C(=O)N[C@H](C(=O)N[C@@H](CCCCN)C(=O)N[C@@H](CCCCN)C(=O)N[C@@H](Cc1ccc(O)cc1)C(=O)N[C@@H](CC1CCCCC1)C(=O)N[C@@H](C)C(=O)N[C@H]1CCC(=O)NCCCC[C@@H](C(=O)N[C@@H](CCCNC(=N)N)C(=O)N[C@@H](Cc2ccc(O)cc2)C(=O)N[C@@H](CCCCN)C(=O)N[C@@H](CCC(N)=O)C(=O)N[C@@H](CCCNC(=N)N)C(=O)N[C@H](C(=O)N[C@@H](CCCCN)C(=O)N[C@@H](CC(N)=O)C(=O)N[C@@H](CCCCN)C(N)=O)C(C)C)NC(=O)CNC(=O)[C@H](CC(C)C)NC(=O)[C@H](C(C)C)NC1=O)C(C)C [P6-38Lbx1, (c[E25,K29], Cha23)P6-38] (H-FTDSYSRYRKQMAVKKY[Cha]AEVLGKRYKQRVKNK-NH2; lactam 20-24)
IC50 [1, 4]: 0.061 ± 0.012 µM
